From patent US8153593B2, “Transglutaminase inhibitors and methods of use thereof” (The Board of Trustees of the Leland Stanford Junior …, priority 2003, dated 2012)

Legend:
glioblastoma cells = assay: In vitro treatment of glioblastoma cells; assay type: cell-based
HCT-116 = assay: Combination with epothilone C in colon cancer cells; assay type: cell-based, human; conditions: KCC009 in the 1-100 μM range
jejunal TG2 = biological target: T1, jejunal TG2 (Rattus norvegicus, UniProt Q9WVJ6); assay: Jejunal mucosal TG2 activity after oral dosing in kneaded gluten vehicle; assay type: in vivo, rats; conditions: 35 mg/kg oral in kneaded gluten vehicle, 1 h after administration
T1 construct: from tissue; host or cells: rat jejunal mucosa
T1 sequence (Q9WVJ6 1-686): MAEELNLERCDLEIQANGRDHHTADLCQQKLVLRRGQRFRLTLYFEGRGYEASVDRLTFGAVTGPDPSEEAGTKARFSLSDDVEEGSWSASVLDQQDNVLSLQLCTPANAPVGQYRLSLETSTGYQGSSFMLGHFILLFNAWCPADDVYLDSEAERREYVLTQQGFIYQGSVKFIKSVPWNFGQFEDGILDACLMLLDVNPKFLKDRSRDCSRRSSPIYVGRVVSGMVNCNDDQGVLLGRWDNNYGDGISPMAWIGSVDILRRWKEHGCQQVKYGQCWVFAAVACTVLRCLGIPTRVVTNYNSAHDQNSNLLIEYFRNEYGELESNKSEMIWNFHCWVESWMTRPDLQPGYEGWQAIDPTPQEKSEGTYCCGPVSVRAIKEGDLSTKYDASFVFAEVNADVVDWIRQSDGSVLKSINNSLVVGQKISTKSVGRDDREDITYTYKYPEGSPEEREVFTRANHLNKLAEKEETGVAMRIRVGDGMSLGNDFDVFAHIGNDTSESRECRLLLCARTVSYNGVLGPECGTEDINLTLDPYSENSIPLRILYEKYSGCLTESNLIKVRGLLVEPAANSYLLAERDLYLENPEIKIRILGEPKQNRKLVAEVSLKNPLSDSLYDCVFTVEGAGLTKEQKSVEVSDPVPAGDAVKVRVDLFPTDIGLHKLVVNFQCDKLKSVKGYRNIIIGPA
Text: Due to the absence of an appropriate animal model for Celiac Sprue, the therapeutic benefit of TG2 inhibitors for this disease can only be validated in patients. Our goal is therefore to identify a safe, oral TG2 inhibitor that can block mucosal TG2 activity in the upper small intestine of Celiac Sprue patients. Such an agent could be used in the context of a short (2 week) blinded crossover trial in Celiac Sprue patients to determine if TG2 inhibition protects a Celiac Sprue patient from gluten-induced malabsorption. From available data, KCC009 may be precisely such a compound. […] To test whether orally administered KCC009 can inhibit jejunal TG2 activity, adult male rats were dosed with 35 mg/kg KCC009 in a kneaded gluten vehicle. Animals were sacrificed 1 h after administration of either vehicle-gluten (n=3) or drug-gluten (n=4), and jejunal mucosa was harvested. In vehicle treated animals, jejunal TG2 activity was 21±7 pmol/min/mg protein, whereas in KCC009 treated rats TG2 activity of 5.5±3 pmol/min/mg protein was observed. Thus, a suitable oral formulation may therefore enable local delivery of KCC009 to intestinal mucosa.

intracranial DBT tumors = assay: Intracranial DBT glioblastoma dose-finding and chemosensitizer studies; assay type: in vivo, mice
Description: To test whether therapeutic doses of KCC009 can modulate TG2 activity associated with intracranial glioblastomas, DBT tumors were injected intracranially in mice. As judged by MRI, the mice consistently established intracranial tumors after 7-10 days following injections, which, if untreated, caused death by 2-3 weeks. In an initial dose-finding experiment, cohorts of mice were administered 4 daily doses of vehicle or KCC009 (12.5 mg/kg, 25 mg/kg and 50 mg/kg) starting on day 11 after intra-cranial injections. Twenty-four hours later, the mice were sacrificed and tumors analyzed. […] Based on these findings a dose of 35 mg/kg was used for subsequent experiments in mice harboring intracranial DBT tumors.
To evaluate the activity of KCC009 as a chemosensitizer, mice harboring DBT tumors were treated either with 10 mg/kg BCNU alone (2 mice) or BCNU+35 mg/kg KCC009 (3 mice). As before, 4 daily drug doses were administered intraperitoneally starting on day 11. Tumors were harvested for immuno-histological analysis 24 h after the last dose.

[1] = biological target: T2, recombinant human tissue transglutaminase (Homo sapiens, UniProt P21980); assay: tTGase inhibition assay, residual activity by glutamate dehydrogenase coupled assay; assay type: biochemical; conditions: dihydroisoxazoles, Table 1
T2 construct: made in house
T2 sequence (P21980 1-687): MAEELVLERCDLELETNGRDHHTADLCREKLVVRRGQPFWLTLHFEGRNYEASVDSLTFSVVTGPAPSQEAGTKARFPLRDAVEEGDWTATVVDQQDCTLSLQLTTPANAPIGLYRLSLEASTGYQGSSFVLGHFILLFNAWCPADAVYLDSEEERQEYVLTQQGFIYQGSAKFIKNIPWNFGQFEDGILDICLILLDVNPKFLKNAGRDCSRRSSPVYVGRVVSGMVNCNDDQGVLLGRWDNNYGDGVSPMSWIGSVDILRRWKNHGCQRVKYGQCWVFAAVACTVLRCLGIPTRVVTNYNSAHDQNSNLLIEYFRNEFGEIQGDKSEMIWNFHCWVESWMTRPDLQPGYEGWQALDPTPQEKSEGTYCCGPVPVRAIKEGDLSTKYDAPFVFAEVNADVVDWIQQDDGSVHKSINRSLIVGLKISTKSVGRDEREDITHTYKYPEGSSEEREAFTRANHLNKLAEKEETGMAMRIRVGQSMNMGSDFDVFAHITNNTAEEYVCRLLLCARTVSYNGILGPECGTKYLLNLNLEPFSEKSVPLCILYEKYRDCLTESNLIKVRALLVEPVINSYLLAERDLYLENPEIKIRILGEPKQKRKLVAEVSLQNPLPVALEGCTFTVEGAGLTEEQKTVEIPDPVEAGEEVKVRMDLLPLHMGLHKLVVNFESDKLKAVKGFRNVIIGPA

DBT cells = assay: Clonogenic radiosensitizer assay; assay type: cell-based, murine
Description: FIG. 2: KCC009 as a radiosensitizer. Cultured DBT cells were treated with radiation alone (3.2 Gy) (left) or radiation plus 0.5 mM KCC009 (right), and plated on soft agar to evaluate cell viability.
In addition to evaluating the chemosensitizing potential of KCC009, this compound's potential as a radiosensitizer was also evaluated. For this clonogenic assays were used to measure colony formation after a single radiation treatment. The studies were performed in triplicate with varying doses of XRT and number of cells plated. […] A representative photo of a clonogenic assay plate treated with X-ray alone compared with a plate pre-treated with 0.5 mM KCC009 plus X-ray is shown in FIG. 2.

O=C(N[C@@H](Cc1ccc(O)cc1)C(=O)NCC1CC(Br)=NO1)OCc1ccccc1 (stereo partly drawn) [Compound 59]
apoptosis (glioblastoma cells): promoted apoptosis | changes in levels of survival proteins (glioblastoma cells): markedly decreased levels of phosphorylated Akt, survivin, phosphorylated Bad, and phosphorylated glycogen synthetase kinase 3β; and increased levels of the pro-apoptotic BH3-only protein, Bim | sensitivity to chemotherapeutic agents (glioblastoma cells): enhanced sensitivity to chemotherapeutic agents | reduction of GI50 for epothilone C (HCT-116): > 2 fold | jejunal TG2 activity (jejunal TG2): 5.5±3 pmol/min/mg protein | fibronectin staining of tumors (intracranial DBT tumors; 10 mg/kg BCNU + 35 mg/kg KCC009 i.p., 4 daily doses, versus BCNU alone): decrease in fibronectin staining overall and an apparent dramatic decrease in the extracellular matrix | gross tumor size and brain swelling (intracranial DBT tumors; 12.5 mg/kg or 25 mg/kg, 4 daily doses from day 11): smaller tumors and reduced brain swelling | gross tumor (intracranial DBT tumors; 50 mg/kg, 4 daily doses from day 11, one mouse): did not have any gross tumor | kinh [1]: 0.86 min⁻¹ | kinh/Ki [1]: 2000 min^−1M^−1 | enhancement of cell death in response to radiation (DBT cells; 0.5 mM KCC009, 3.2 Gy X-ray): two orders of magnitude | effect of KCC009 alone on cell viability (DBT cells; at corresponding concentrations, no radiation): does not affect cell viability
